From patent publication US12351597B2, “Substituted biphenyl or phenylheteroaryl-mannosides as antagonists of FimH” (GLAXOSMITHKLINE INTELLECTUAL PROPERTY DEVELOPMENT LIMITED, priority 2019, dated 2025)

biological target: T1, FimH (Escherichia coli, UniProt Q1R2J4); test: Hemagglutination inhibition assay (HAI); type: cell-based; details: HAI titer / EC>90: concentration reducing bacterial agglutination of guinea pig red blood cells by >90%; UTI89 bacteria
T1 construct: endogenous in cells; host or cells: E. coli UTI89 whole bacteria (piliated), with guinea pig red blood cells
From the text: “HAI titer or EC>90” is that concentration of the FimH inhibitor/antagonist which reduces the bacterial agglutination of guinea pig red blood cells by greater than 90%.
The activities of the Examples 1-40 compounds above as FimH antagonists/inhibitors were obtained by the following assay(s), and values are provided in Table 1. The values not provided mean that the activities have not yet been tested.
Hemagglutination Inhibition Assay (HAI)
The hemagglutination inhibition (HAI) assay was performed with UTI89 bacteria and guinea pig red blood cells, as previously described (S. J. Hultgren, W. R. Schwan, A. J. Schaeffer, J. L. Duncan Infect. Immun. 1986, 54, 613-620 and Jarvis, C.; Han, Z.; Kalas, V.; Klein, R.; Pinkner, J. S.; Ford, B.; Binkley, J.; Cusumano, C. K.; Cusumano, Z.; Mydock-McGrane, L.; Hultgren, S. J.; Janetka, J. W., ChemMedChem 2016, 11, 367-373). Values not listed were not tested.

SMILES	HAI nM
OC[C@H]1O[C@H](Oc2ccc(-c3cnc(C(F)(F)F)cn3)cc2Cl)[C@@H](O)[C@@H](O)[C@@H]1O [Example 33]	“+++” (50-200)
Cc1cc(-c2ccc(C(F)(F)F)cn2)ccc1O[C@H]1O[C@H](CO)[C@@H](O)[C@H](O)[C@@H]1O [Example 27]	“+++” (50-200)
Cc1cc(-c2ccnc(N(C)C)c2)ccc1O[C@H]1O[C@H](CO)[C@@H](O)[C@H](O)[C@@H]1O [Example 10]	“++++” (<50)
OC[C@H]1O[C@H](Oc2ccc(-c3cccc(C(F)(F)F)n3)cc2C(F)(F)F)[C@@H](O)[C@@H](O)[C@@H]1O [Example 39]	“+++” (50-200)
Cc1cc(-c2cncc(C(F)(F)F)n2)ccc1O[C@H]1O[C@H](CO)[C@@H](O)[C@H](O)[C@@H]1O [Example 34]	“+++” (50-200)
OC[C@H]1O[C@H](Oc2ccc(-c3ncc(C(F)(F)F)cn3)cc2C(F)(F)F)[C@@H](O)[C@@H](O)[C@@H]1O [Example 22]	“+++” (50-200)
Cc1cc(-c2cccc(C(F)(F)F)n2)ccc1O[C@H]1O[C@H](CO)[C@@H](O)[C@H](O)[C@@H]1O [Example 40]	“+++” (50-200)
Cc1cc(-c2cnc(C(F)(F)F)c(F)c2)ccc1O[C@H]1O[C@H](CO)[C@@H](O)[C@H](O)[C@@H]1O [Example 21]	“+++” (50-200)
Cc1cc(-c2cnc(F)c(C(F)(F)F)c2)ccc1O[C@H]1O[C@H](CO)[C@@H](O)[C@H](O)[C@@H]1O [Example 31]	“+++” (50-200)
Cc1cc(-c2ncc(C(F)(F)F)cn2)ccc1O[C@H]1O[C@H](CO)[C@@H](O)[C@H](O)[C@@H]1O [Example 15]	“+++” (50-200)
OC[C@H]1O[C@H](Oc2c(F)cc(-c3nccc(C(F)(F)F)n3)cc2C(F)(F)F)[C@@H](O)[C@@H](O)[C@@H]1O [Example 36]	“++++” (<50)
OC[C@H]1O[C@H](Oc2c(F)cc(-c3cnc(C(F)(F)F)cn3)cc2C(F)(F)F)[C@@H](O)[C@@H](O)[C@@H]1O [Example 2, (2R,3S,4S,5S,6R)-2-(2-Fluoro-6-(trifluoromethyl)-4-(5-(trifluoromethyl)pyrazin-2-yl)phenoxy)-6-(hydroxymethyl)tetrahydro-2H-pyran-3,4,5-triol]	“++++” (<50)
OC[C@H]1O[C@H](Oc2ccc(-c3cc(C(F)(F)F)c(F)cn3)cc2C(F)(F)F)[C@@H](O)[C@@H](O)[C@@H]1O [Example 20]	“+++” (50-200)
OC[C@H]1O[C@H](Oc2ccc(-c3ccc(C(F)(F)F)cn3)cc2C(F)(F)F)[C@@H](O)[C@@H](O)[C@@H]1O [Example 32]	“+++” (50-200)
Cc1cc(-c2ccc(N3CCCC3)nc2)ccc1O[C@H]1O[C@H](CO)[C@@H](O)[C@H](O)[C@@H]1O [Example 9]	“++++” (<50)
OC[C@H]1O[C@H](Oc2ccc(-c3cc(C(F)(F)F)ccn3)cc2C(F)(F)F)[C@@H](O)[C@@H](O)[C@@H]1O [Example 18]	“+++” (50-200)
OC[C@H]1O[C@H](Oc2c(F)cc(-c3cc(C(F)(F)F)ccn3)cc2C(F)(F)F)[C@@H](O)[C@@H](O)[C@@H]1O [Example 19]	“++++” (<50)
Cc1cc(-c2nccnc2C(F)(F)F)ccc1O[C@H]1O[C@H](CO)[C@@H](O)[C@H](O)[C@@H]1O [Example 29]	“+++” (50-200)
Cc1cc(-c2cnccn2)ccc1O[C@H]1O[C@H](CO)[C@@H](O)[C@H](O)[C@@H]1O [Example 23]	“+++” (50-200)
OC[C@H]1O[C@H](Oc2ccc(-c3nccc(C(F)(F)F)n3)cc2C(F)(F)F)[C@@H](O)[C@@H](O)[C@@H]1O [Example 13]	“+++” (50-200)
COc1ccc(-c2ccc(O[C@H]3O[C@H](CO)[C@@H](O)[C@H](O)[C@@H]3O)c(C)c2)cn1 [Example 8]	“+++” (50-200)
